Experimental data taken from patent US20140179795A1, “Agent for Stabilizing Acetaminophen” (priority 2010, published 2014).

Legend:
[1] = Stability under high-temperature and high-pressure conditions (121° C., 1 hour): color tone, precipitation, related substances by HPLC; type: physicochemical; design: key to Color tone: +++: deep brown; ++: slightly deep brown; +: light brown; ±: very little discoloration; −: no discoloration; key to Precipitation: +: visible precipitates; −: no precipitates; conditions: 1 w/v % acetaminophen, 5 w/v % xylitol, pH 5, 1-hour treatment; for Total amount of related substances (%): HPLC peak area 225 nm
Procedure: Aqueous compositions containing glycine at the concentrations shown in Table 1 below, 1 w/v % acetaminophen, 5 w/v % xylitol and phosphoric acid (q.s.) and having the pH of 5 were heat-treated at 121° C. for 1 hour, and subsequently visually observed in terms of the color tone (the degree of discoloration) and the presence of precipitates.
In addition, the concentration of acetaminophen-related substances in each aqueous composition was determined by HPLC. The HPLC conditions were as follows.
(§1) The analysis was performed using liquid chromatography as described in the purity test of acetaminophen (related substances) prescribed in the manual of the Japanese pharmacopoeia, 15th edition. That is, each solution was subjected to HPLC using an octadecyl silica gel column and a mobile phase prepared by mixing methanol and a potassium dihydrogen phosphate solution, the peak areas at the detection wavelength of 225 nm were determined by an automatic integration method, and the percentage of the summed peak areas of the related substances to the total area of all peaks (total amount of related substances (%)) was calculated.

[2] = Effects of pH on stability under extreme conditions (60° C., 21-day storage); type: physicochemical; design: key to Color tone: +++: deep brown; ++: slightly deep brown; +: light brown; ±: very little discoloration; −: no discoloration; key to Precipitation: +: visible precipitates; −: no precipitates; conditions: 0.56 w/v % glycine, 0.22 w/v % citric acid, 0.9 w/v % NaCl; for Total amount of related substances (%): HPLC
Procedure: as §1
Aqueous solutions with the pHs shown in Table 4 below were prepared by mixing 1 w/v % of acetaminophen, 0.56 w/v % of glycine, 0.22 w/v % of citric acid, 0.9 w/v % of NaCl, and NaOH or H3PO4 (q.s.). The aqueous solutions were autoclaved at 121° C. for 20 minutes and then stored at 60° C. for 21 days. Subsequently, the aqueous solutions were visually observed in terms of the color tone (the degree of discoloration) and the presence of precipitates. In addition, the concentration of acetaminophen-related substances in each aqueous solution was determined by HPLC.

- Color tone ([1]; glycine 0 w/v %): +
- Precipitation ([1]; glycine 0 w/v %): −
- Total amount of related substances (%) ([1]; glycine 0 w/v %): 0.33%
- Color tone ([1]; glycine 0.14 w/v %): −
- Precipitation ([1]; glycine 0.14 w/v %): −
- Total amount of related substances (%) ([1]; glycine 0.14 w/v %): 0.03%
- Color tone ([1]; glycine 0.28 w/v %): −
- Precipitation ([1]; glycine 0.28 w/v %): −
- Total amount of related substances (%) ([1]; glycine 0.28 w/v %): 0.01%
- Color tone ([1]; glycine 0.56 w/v %): −
- Precipitation ([1]; glycine 0.56 w/v %): −
- Total amount of related substances (%) ([1]; glycine 0.56 w/v %): 0%
- Color tone ([2]; pH 2, 1 w/v % acetaminophen): +++
- Precipitation ([2]; pH 2, 1 w/v % acetaminophen): +
- Total amount of related substances (%) ([2]; pH 2, 1 w/v % acetaminophen): 12.18%
- Color tone ([2]; pH 3, 1 w/v % acetaminophen): ++
- Precipitation ([2]; pH 3, 1 w/v % acetaminophen): +
- Total amount of related substances (%) ([2]; pH 3, 1 w/v % acetaminophen): 5.44%
- Color tone ([2]; pH 4, 1 w/v % acetaminophen): ±
- Precipitation ([2]; pH 4, 1 w/v % acetaminophen): +
- Total amount of related substances (%) ([2]; pH 4, 1 w/v % acetaminophen): 0.8%
- Color tone ([2]; pH 5, 1 w/v % acetaminophen): ±
- Precipitation ([2]; pH 5, 1 w/v % acetaminophen): −
- Total amount of related substances (%) ([2]; pH 5, 1 w/v % acetaminophen): 0.05%
- Color tone ([2]; pH 6, 1 w/v % acetaminophen): +
- Precipitation ([2]; pH 6, 1 w/v % acetaminophen): −
- Total amount of related substances (%) ([2]; pH 6, 1 w/v % acetaminophen): 0.05%
- Color tone ([2]; pH 7, 1 w/v % acetaminophen): ++
- Precipitation ([2]; pH 7, 1 w/v % acetaminophen): −
- Total amount of related substances (%) ([2]; pH 7, 1 w/v % acetaminophen): 0.06%
- Color tone ([2]; pH 8, 1 w/v % acetaminophen): +++
- Precipitation ([2]; pH 8, 1 w/v % acetaminophen): +
- Total amount of related substances (%) ([2]; pH 8, 1 w/v % acetaminophen): 0.07%
SMILES: CC(=O)Nc1ccc(O)cc1 [acetaminophen, N-(4-hydroxyphenyl)acetamide]
